Earlier results as cited in US6475978B1, “Method of making water-softening and detergent compositions” (Unilever Home & Personal Care USA a division of Conopco, …, priority 1999, dated 2002).
Read-outs that look alike come from different tables or passages of the source.

Details: at 20° C.
[1] = materials with solubility of less than 50 g per 100 g water

Row | Water Solubility (materials with solubility of at least 50 g per 100 g water) | SMILES | Water Solubility [1]
1 | – | O=BO[O-].[Na+] [Sodium perborate anhydrous] | 3.7 g/100 g
2 | – | O=P(O)(O)OP(=O)(O)OP(=O)(O)O [Sodium tripolyphosphate anhydrous] | 15 g/100 g
3 | >100 g/100 g | NC(N)=O [Urea] | –
